Data published in patent US20230133630A1, “Oral Care Compositions Comprising Dicarboxylic Acid” (The Procter & Gamble Company, priority 2021, published 2023).

How the values were obtained:
Assay type in all cases: cell-based
[1] = tested on: human gingival keratinocytes (Gie-No3-B11), E. coli LPS; assay: Infection of human gingival keratinocytes by fluorescent E. coli LPS
Method: (§1) One method to assess the potential of dicarboxylic acids to reduce gum disease and improve health was to assess the infection potential of gingival keratinocytes. In this model, human gingival keratinocytes (Gie-No3-B11, purchased from Creative Bioarray, Shirley, N.Y.) were maintained in a 37° C. incubator with 5% CO2. Cells were seeded in 100 μL cell suspension to each well (2K cells/well). Cells were treated 24 hours after seeding. Growth medium alone or growth medium with solvent vehicle was used as a negative control. Positive controls are either fluorescent E. coli LPS, or fluorescent S. minnesota LPS (https://corporate.thermofisher.com/us/en/index.html), fluorescence-label P. gingivalis outer membrane vesicles (OMV) with or without medium or solvent vehicle. P. gingivalis OMV was isolated following procedures described by Cecil et al. 2016 (Jessica D. Cecil, Neil M. O'Brien-Simpson, Jason C. Lenzo, James A. Holden, Yu-Yen Chen, William Singleton, Katelyn Gause, Yan Yan, Frank Caruso, and Eric C. Reynolds. Differential Responses of Pattern Recognition Receptors to Outer Membrane Vesicles of Three Periodontal Pathogens. iPLoS One. 2016; 11(4): e0151967). The OMV was stained with Lipophilic Tracer DiO following manufacturer's instruction (https://corporate.thermofisher.com/us/en/index.html). Compounds were dissolved in water and diluted in culture medium (all dilutions are deep yellow, or very acidic). All compounds and fluorescent LPS or OMV were added to cells at the same time. It is worth mentioning that cell culture medium changed immediately following adding the compounds from pink (pH7-7.4) to deep yellow (acidic). Images were taken in four sites in each well at a 3-hour interval over 48 to 120 hours in Incucyte® Live-Cell Analysis Systems (https://www.sartorius.com/en/products/live-cell-imaging-analysis/live-cell-analysis-instruments#id-789214). Data were processed and analyzed using R-programs.

[2] = tested on: human gingival keratinocytes (Gie-No3-B11), P. gingivalis OMV; assay: Infection of human gingival keratinocytes by fluorescence-label P. gingivalis outer membrane vesicles (OMV); conditions: for inhibition at 100000 µM: concentration 100 mM
Method: as §1

[3] = tested on: human gingival keratinocytes (Gie-No3-B11), S. minnesota LPS; assay: Infection of human gingival keratinocytes by fluorescent S. minnesota LPS
Method: as §1

[4] = Homo sapiens, Keratinocyte, concentration 5 mM
[5] = Homo sapiens, Keratinocyte, concentration 11.11 mM
[6] = Homo sapiens, Keratinocyte, concentration 7.5 mM
[7] = Homo sapiens, Keratinocyte, concentration 125 μM

Which results are given for O=C(O)CC(O)C(=O)O (stereo not drawn) [DL_Maleic_acid]?
Inhibition % ([1]; concentration 5 mM): 36.3%; Inhibition % ([2]; concentration 11.11 mM): 62.2%; Inhibition % ([3]; concentration 7.5 mM): 59.9%

Which Inhibition % ([2]; concentration 1 mM) does the source give for O=C(O)C(O)C(O)C(=O)O (stereo not drawn) [DL_Tartaric_acid, DL tartaric acid] here?
The Inhibition % was 57.7%.

And the Inhibition % ([3]; concentration 1 mM)?
Its Inhibition % is 26.4%.

What does the source list for CC(C)(C(=O)O)C(=O)O [Dimethylmalonic_Acid, dimethylmalonic acid]?
inhibition at 5000 µM [1, 4]: 33.8%; inhibition at 11110 µM [2, 5]: 81.3%; inhibition at 7500 µM [3, 6]: 54.5%

What does the source list for O=C(O)/C=C/C(=O)O [Fumaric_acid, fumaric acid]?
inhibition at 7500 µM [1, 6]: 31%; inhibition at 33330 µM ([2]; Homo sapiens, Keratinocyte, concentration 33.33 mM): 53.1%; inhibition at 7500 µM [3, 6]: 71.9%

Which Inhibition % ([2]; concentration 2.5 mM) does the source give for O=C(O)[C@H](O)[C@@H](O)C(=O)O [L_+_Tartaric_acid, L-tartaric acid] here?
The Inhibition % was 73.6%.

What about the Inhibition % ([3]; concentration 10 mM) of the same compound?
The Inhibition % was 52.1%.

What does the source list for O=C(O)/C=C\C(=O)O [Maleic_acid, maleic acid]?
inhibition at 5000 µM [1, 4]: 63.8%; inhibition at 100000 µM ([2]; Homo sapiens, Keratinocyte): 83.3%; inhibition at 3000 µM ([3]; Homo sapiens, Keratinocyte, concentration 3 mM): 73.8%

With O=C(O)CC(=O)O [Malonic_acid, malonic acid] as the compound, how does the inhibition at 5000 µM [1, 4] read?
Its inhibition at 5000 µM is 35.9%.

What about the inhibition at 11110 µM [2, 5] of the same compound?
The inhibition at 11110 µM was 69.3%.

With CC(C(=O)O)C(=O)O [Methyl_malonic_acid, methylmalonic acid] as the compound, how does the inhibition at 5000 µM [1, 4] read?
Its inhibition at 5000 µM is 30.7%.

What about the inhibition at 11110 µM [2, 5] of the same compound?
Its inhibition at 11110 µM is 63.6%.

And the inhibition at 2500 µM ([3]; Homo sapiens, Keratinocyte, concentration 2.5 mM)?
The inhibition at 2500 µM was 28.7%.

Which inhibition at 125 µM [1, 7] does the source give for O=C(O)C(=O)O [Oxalic_acid, oxalic acid] here?
The inhibition at 125 µM was 38.2%.

And the inhibition at 100000 µM ([2]; Homo sapiens, Keratinocyte)?
The inhibition at 100000 µM was 32.8%.

What about the inhibition at 125 µM [3, 7] of the same compound?
The inhibition at 125 µM was 22.5%.

Which results are given for O.O=C([O-])C(=O)[O-].[K+].[K+] [Potassium_oxalate_monohydrate, Potassium Oxalate Monohydrate]?
Inhibition % ([1]; concentration 125 μM): 21.5%; Inhibition % ([3]; concentration 125 μM): 41.5%

O=C(O)C(=O)C(=O)O [Sodium_mesoxalate_monohydrate, Sodium Mesoxalate Monohydrate] was tested. Which inhibition at 5000 µM [2, 4] did it give?
The inhibition at 5000 µM was 44.3%.

Which inhibition at 2000 µM ([2]; Homo sapiens, Keratinocyte, concentration 2 mM) does the source give for O=C(O)CCC(=O)O [Succinic_acid, succinic acid] here?
Its inhibition at 2000 µM is 73%.

What about the inhibition at 1000 µM ([3]; Homo sapiens, Keratinocyte, concentration 1 mM) of the same compound?
The inhibition at 1000 µM was 42.3%.
